Test results as given in ChEMBL document CHEMBL1137565, “Discovery of novel 8-azoniabicyclo[3.2.1]octane carbamates as muscarinic acetylcholine receptor antagonists” (Bioorg Med Chem Lett, 2007).

How the values were obtained:
[1] = molecular target: Muscarinic acetylcholine receptor M1 and M3 (Homo sapiens) (UniProt P20309+P11229); assay: Selectivity for cloned muscarinic M3 receptor over cloned muscarinic M1 receptor
[2] = molecular target: Muscarinic acetylcholine receptors; M2 & M3 (Homo sapiens) (UniProt P20309+P08172); assay: Selectivity for cloned muscarinic M3 receptor over cloned muscarinic M2 receptor
[3] = species: Mus musculus; assay: Effect on metacholine-induced bronchoconstriction in mouse assessed as bronchoprotection at 5 ug after 5 hrs; format: functional
[4] = species: Mus musculus; assay: Effect on metacholine-induced bronchoconstriction in mouse assessed as bronchoprotection at 5 ug after 15 mins; format: functional
[5] = molecular target: T1, Muscarinic acetylcholine receptor M1 (Homo sapiens, UniProt P11229); assay: Antagonist activity at cloned muscarinic M1 receptor expressed in CHO cells by measuring calcium mobilization; format: functional, cell-based
T1 sequence (P11229 whole entry): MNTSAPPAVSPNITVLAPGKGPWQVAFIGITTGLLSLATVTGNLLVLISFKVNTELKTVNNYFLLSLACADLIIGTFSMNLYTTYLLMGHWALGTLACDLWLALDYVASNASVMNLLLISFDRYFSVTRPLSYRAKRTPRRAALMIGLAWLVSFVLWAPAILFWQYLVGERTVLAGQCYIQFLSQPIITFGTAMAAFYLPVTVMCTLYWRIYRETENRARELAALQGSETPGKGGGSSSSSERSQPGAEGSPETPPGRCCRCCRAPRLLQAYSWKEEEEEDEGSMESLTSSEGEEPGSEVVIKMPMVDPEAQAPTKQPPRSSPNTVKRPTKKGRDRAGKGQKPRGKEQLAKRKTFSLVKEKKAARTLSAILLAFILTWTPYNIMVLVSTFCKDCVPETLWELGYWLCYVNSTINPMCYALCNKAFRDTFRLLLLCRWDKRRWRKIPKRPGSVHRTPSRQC

[6] = molecular target: Muscarinic acetylcholine receptor M3 (Homo sapiens, UniProt P20309); assay: Antagonist activity at cloned muscarinic M3 receptor expressed in CHO cells by measuring calcium mobilization; format: functional, cell-based
[7] = species: Mus musculus; assay: Effect on metacholine-induced bronchoconstriction in mouse assessed as bronchoprotection at 5 ug after 24 hrs; format: functional
[8] = molecular target: T2, Muscarinic acetylcholine receptor M2 (Homo sapiens, UniProt P08172); assay: Antagonist activity at cloned muscarinic M2 receptor expressed in CHO cells by measuring calcium mobilization; format: functional, cell-based
T2 sequence (P08172 whole entry): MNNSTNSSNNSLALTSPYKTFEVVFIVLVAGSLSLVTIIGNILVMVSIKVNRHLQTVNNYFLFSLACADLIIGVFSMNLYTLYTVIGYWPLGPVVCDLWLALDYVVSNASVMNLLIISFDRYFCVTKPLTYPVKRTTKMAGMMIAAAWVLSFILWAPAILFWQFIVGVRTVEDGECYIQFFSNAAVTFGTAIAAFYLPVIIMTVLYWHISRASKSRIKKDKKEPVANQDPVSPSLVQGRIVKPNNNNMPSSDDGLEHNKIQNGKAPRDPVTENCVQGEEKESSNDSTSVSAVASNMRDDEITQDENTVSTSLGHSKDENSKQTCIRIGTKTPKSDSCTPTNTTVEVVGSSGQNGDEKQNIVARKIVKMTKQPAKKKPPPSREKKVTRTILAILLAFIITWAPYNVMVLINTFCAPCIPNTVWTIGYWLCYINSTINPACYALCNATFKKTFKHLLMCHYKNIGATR

Sequence of Muscarinic acetylcholine receptor M3 (P20309 whole entry): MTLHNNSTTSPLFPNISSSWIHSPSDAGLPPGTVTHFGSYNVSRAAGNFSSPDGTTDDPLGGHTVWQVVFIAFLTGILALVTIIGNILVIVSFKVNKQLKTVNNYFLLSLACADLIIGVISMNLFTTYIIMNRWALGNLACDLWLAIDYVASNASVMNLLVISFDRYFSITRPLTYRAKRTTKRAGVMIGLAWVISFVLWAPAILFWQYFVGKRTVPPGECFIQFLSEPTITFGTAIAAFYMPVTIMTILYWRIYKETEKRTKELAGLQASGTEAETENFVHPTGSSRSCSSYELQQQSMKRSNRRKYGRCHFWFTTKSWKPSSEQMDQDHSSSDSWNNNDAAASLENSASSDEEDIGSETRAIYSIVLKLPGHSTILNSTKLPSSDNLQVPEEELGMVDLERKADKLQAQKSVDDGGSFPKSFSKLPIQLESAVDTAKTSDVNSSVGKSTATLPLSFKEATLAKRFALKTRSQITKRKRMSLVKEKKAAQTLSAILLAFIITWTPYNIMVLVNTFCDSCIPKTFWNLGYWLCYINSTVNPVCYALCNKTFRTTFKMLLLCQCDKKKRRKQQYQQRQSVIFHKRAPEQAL
Sequence of Muscarinic acetylcholine receptor M1 and M3 (Homo sapiens) (P20309 whole entry, looked up, one chain of several): as the sequence (P20309 whole entry) above

With `C[N+]1(C)[C@@H]2CC[C@H]1C[C@H](OC(=O)N(Cc1ccccc1)c1ccsc1)C2.[Br-]` the Ratio IC50 [1] was 1, the Ratio IC50 [2] was 5.5 and the Activity [3] was 80%. For the same molecule, the Activity [4] was 85%, the IC50 [5] was 2.1 nM and the IC50 [6] was 2 nM. For the same molecule, the Activity [7] was 25% and the IC50 [8] was 10.9 nM.
